# Source: article PMC9715617 (Frontiers in Pharmacology, 2022)
# Biological target: SARS-CoV-2 3CL^pro (Severe acute respiratory syndrome coronavirus 2, UniProt P0DTD1)
# Test: SARS-CoV-2 3CLpro enzyme inhibition assay (fluorophore-quencher peptide substrate)
# Type: biochemical
# Details: 200 nM 3CLpro, 20 min preincubation, 30 min at 25°C, triplicate
# Experimental: Fluorescence intensity was measured on a microplate reader (λex = 485 nm; λem = 528 nm). Experiment was performed in triplicate.
row,Structure (SMILES),IC50
1,O=C(N[C@@H](c1cccc(F)c1)C(F)(F)F)[C@@H](c1cnccn1)N(C(=O)c1ccco1)c1ccc(C2CCCCC2)cc1 [Hit 1],17 ± 3 nM
2,O=C(NCc1c(F)c(F)c(F)c(F)c1F)[C@@H](c1cccnc1)N(C(=O)c1ccno1)c1ccc(-c2cccs2)cc1 [Hit 2],830 ± 110 nM
3,C[C@H](NC(=O)[C@@H](c1cccnc1)N(C(=O)c1ccno1)c1ccc(C2CCCCC2)cc1)c1cccc(F)c1F [Hit 3],90 ± 20 nM
4,O=C(NCc1ccccc1)[C@@H](c1cccnc1)N(C(=O)c1ccco1)c1ccc(-c2cccs2)cc1 [Hit 4],750 ± 40 nM
5,"O=C(Nc1ccc(N(Cc2ccsc2)C(=O)Cn2nnc3ccccc32)cc1)C1CC1 [ML300, reference compound]",4010 ± 660 nM

# Same assay, conditions: ratio of IC50 values vs ML300
row,Structure (SMILES),"inhibition activity, times stronger than that of ML300"
1,O=C(N[C@@H](c1cccc(F)c1)C(F)(F)F)[C@@H](c1cnccn1)N(C(=O)c1ccco1)c1ccc(C2CCCCC2)cc1 [Hit 1],about 236 times
